Reference: patent publication US20150253330A1, “PRE-SELECTION OF SUBJECTS FOR THERAPEUTIC TREATMENT WITH AN HSP90 INHIBITOR BASED ON HYPOXIC STATUS” (Synta Pharmaceuticals Corp., priority 2012, published 2015)
Entries after “also recorded” stand apart in the source; their conditions may differ.

Key:
Hsp90 client proteins = assay: Western blot of Hsp90 client proteins in AGS gastric cancer cells; assay type: cell-based
Experimental: Ganetespib was also evaluated for its effects on Hsp90 client proteins in AGS gastric cancer cells by western blot. […] Similar to the observation in melanoma cells, exposure to ganetespib […] BRAF expression.

[1] = system: human KRAS mutant NSCLC tumor xenografts; assay: KRAS mutant NSCLC tumor xenografts in vivo; parameters: species or system mice
From the text: Female immunodeficient CD-1 (nude) mice (Charles River Laboratories, Wilmington, Mass.) were maintained in a pathogen-free environment, and all in vivo procedures were approved by the Synta Pharmaceuticals Corp. Institutional Animal Care and Use Committee. A549 NSCLC cells (7.5×10^6) were subcutaneously implanted into the animals. Mice bearing established tumors (100-200 mm^3) were randomized into treatment groups of 8 and i.v. dosed via the tail vein with either vehicle, ganetespib formulated in 10/18 DRD (10% DMSO, 18% Cremophor RH 40, 3.6% dextrose, 68.4% water) or p.o. dosed with BEZ235 formulated in PEG300/NMP (90% PEG300, 10% N-Methylpyrrolidone). Animals were treated with ganetespib at 50 mg/kg weekly or BEZ235 at 10 mg/kg 5 times a week, either alone or in combination. Tumor growth inhibition was determined as described previously. See Proia et al, PLoS One. 2011; 6(4):e18552.

GCIY = assay: 72 hr viability by Syto60, gastric cell line; assay type: cell-based; conditions: Homo sapiens, Syto60 (lower), read-out: ganetespib IC50
VEGF secretion = assay: VEGF ELISA of conditioned medium of pancreatic cancer cell lines; assay type: cell-based
Experimental: VEGF concentration in the conditioned medium (from control and treated cells) was determined using a commercial Human VEGF Quantikine ELISA kit (R&D systems, Minneapolis, Minn.) as per manufacturer's instructions.

AGS = assay: 72 hr viability by Syto60, gastric cell line; assay type: cell-based; conditions: Homo sapiens, Syto60 (lower), read-out: ganetespib IC50
Experimental: (§1) Many of the oncoproteins associated with gastric cancer and Hsp90 client proteins including HER2, MET, RAS and the FGFR family. Ganetespib was evaluated for its effect on the growth of AGS (wt-p53 and mut-KRAS) and MKN45 (wt-p53, wt-KRAS, MET amplified) gastric cancer cells. Cells were treated for 72 hr and viability determined by CTG (upper) or Syto60 (lower).

MKN-45 = assay: 72 hr viability by Syto60, gastric cell line; assay type: cell-based; conditions: Homo sapiens, Syto60 (lower), read-out: ganetespib IC50
Experimental: as §1

solid tumors = assay: Phase 1 trial of ganetespib in combination with docetaxel in solid tumors; assay type: in vivo, human
Experimental: A trial to evaluate three dose-level combinations of docetaxel and ganetespib, administered on a three-week cycle, with the primary objective of determining an optimal dose for future clinical trials was performed. Docetaxel was administered as a one hour IV infusion on day 1 and ganetespib was administered as a one hour IV infusion on days 1 and 15. The dose level combinations evaluated were 150 mg/m^2 and 60 mg/m^2; 150 mg/m^2 and 75 mg/m^2; and 200 mg/m^2 and 75 mg/m^2 for ganetespib and docetaxel respectively. The standard of care dose level for docetaxel was 75 mg/m^2. A total of 19 patients received at least one dose of study treatment at the cut-off time. The median number of cycles of treatment was 4, with a range of 1 to 11 cycles of treatment. No prophylactic treatment for neutropenia was used. The combination of ganetespib at 150 mg/m^2 and docetaxel at 75 mg/m^2 was selected as the recommended dose.

[2] = system: HPAC and ASPC-1 xenograft; assay: In vivo tumor growth delay and angiogenic assay, pancreatic xenografts; parameters: species or system SCID mice; conditions: 100 mg/kg IV once a week for three weeks
Experimental: It's postulated that functional inhibition of Hsp90 by ganetespib can inhibit angiogenesis and growth in vitro and in vivo models of pancreatic cancer. PANC-1 and HPAC cell lines were treated with vehicle or G (50 nM) for 24 h and lysates were analyzed by Western blot. Egg CAM and matrigel plug assays were performed to quantify the effects of ganetespib on angiogenesis. Efficacy of ganetespib (100 mg/kg) was assessed in mice bearing HPAC and ASPC-1 xenograft.
In vivo tumor growth delay and angiogenic assay: Five-week-old SCID mice were divided into 4 groups with 10 animals in each group. First two groups received 100 μl of Ice cold matrigel medium containing ASPC-1 (1×10^6 cells/100 μl) and other two groups received HPAC cell lines subcutaneously. Once the tumor reached 100-120 mm^3, the groups 2 and 4 received ganetespib (100 mg/kg body weight) IV once a week for three weeks. […] Every other day, tumor was measured using vernier caliper scale for a total of five weeks, when the animals were sacrificed. Skin around the implanted matrigel tumor was removed carefully and the tumor with its surrounding was photographed under visible light.

locally advanced or MBC = assay: Phase 2 trial in metastatic breast cancer (MBC); assay type: in vivo, human
Experimental: Patients with locally advanced or MBC were treated with single agent of ganetespib at 200 mg/m^2 on a cycle of once weekly for 3 weeks, one week off, on a 28 day cycle. The primary endpoint of the trial was overall response rate using RECIST 1.1. Patients with HER2+ breast cancer were required to have received prior therapy with trastuzumab. No more than 3 lines of chemotherapy in the metastatic setting were permitted, but there was no limit on prior lines of hormone therapy. Patients were evaluated for response after 2 cycles. The trial used a Simon two-stage design requiring at least 3 responses among the first 22 patients, to allow expansion to a total of 40 patients. A total of 22 patients were treated with a median age of 51 years (38 to 70) and the following subtypes: 13 HER2+ (10 ER+/HER2+; 3 ER−/HER2+), 6 ER+/HER2−, and 3 ER−/PR−/HER2− (TNBC).

[3] = human pancreatic tumor xenografts

In the case of CC(C)c1cc(-c2nnc(O)n2-c2ccc3c(ccn3C)c2)c(O)cc1O [ganetespib], the “Effect on Hsp90 client proteins by western blot” value (Hsp90 client proteins) is reported as “abolished the expression of EGFR, IGF-IR, C-RAF”, the “Tumor growth inhibition in the combination arm” value ([1]; ganetespib combined with a PI3K/mTOR inhibitor) is reported as “considerable improvement in tumor growth inhibition” and the “Growth of KRAS mutant NSCLC tumor xenografts” value ([1]; single agent) is reported as “effectively suppressed the growth”. For the same molecule, the Tumor regression ([1]; single agent) was “did not induce tumor regression”, the IC50 (GCIY) was 9 nM and the “VEGF secretion in the culture medium” value (VEGF secretion) was “reduced VEGF secretion; also recorded: decrease in VEGF secretion; also recorded: down-regulation of VEGF secretion”. It also gave an IC50 (AGS) of 5 nM, an IC50 (MKN-45) of 8 nM and a Febrile neutropenia (solid tumors; four patients, ganetespib in combination with docetaxel) of 22%. For the same molecule, the “Neutropenia (most common adverse event)” value (solid tumors; ganetespib in combination with docetaxel) was 67%, the “Recommended dose of ganetespib” value (solid tumors; in combination with docetaxel at 75 mg/m^2) was 150 mg/m^2 and the Serious adverse events (solid tumors; nine patients, ganetespib in combination with docetaxel) was 50%. For the same molecule, the “Shrinkage of target tumor lesions” value (solid tumors; one patient with cancer of the parotid gland, ganetespib with docetaxel) was “over 50%”, the “Effect of ganetespib on docetaxel pharmacokinetics” value (solid tumors; patients) was “no effect” and the “Pharmacokinetics of ganetespib alone versus prior to docetaxel” value (solid tumors; patients) was “pharmacokinetic similarity”. The Angiogenesis in vivo [2, 3] was “inhibition of angiogenesis in vivo; also recorded: decreases angiogenesis”, the Tumor growth [2, 3] was “significant tumor growth delay; also recorded: significantly inhibits tumor growth” and the “Deaths from the treatment” value ([2]; SCID mice) was “None of the animals died”. For the same molecule, the “CBR (CR + PR + SD > 6 months)” value (locally advanced or MBC; ER+/HER2− (N = 6)) was 0, the CR (locally advanced or MBC; ER+/HER2− (N = 6)) was 0 and the ORR (locally advanced or MBC; ER+/HER2− (N = 6)) was 0. For the same molecule, the PR (locally advanced or MBC; ER+/HER2− (N = 6)) was 0, the “CBR (CR + PR + SD > 6 months)” value (locally advanced or MBC; HER2+ (N = 13)) was 2 (9%) and the CR (locally advanced or MBC; HER2+ (N = 13)) was 0. The ORR (locally advanced or MBC; HER2+ (N = 13)) was 2 (9%), the PR (locally advanced or MBC; HER2+ (N = 13)) was 2 and the “CBR (CR + PR + SD > 6 months)” value (locally advanced or MBC; TNBC (N = 3)) was 0. For the same molecule, the CR (locally advanced or MBC; TNBC (N = 3)) was 0, the ORR (locally advanced or MBC; TNBC (N = 3)) was 0 and the PR (locally advanced or MBC; TNBC (N = 3)) was 0. The “CBR (CR + PR + SD > 6 months)” value (locally advanced or MBC; Total (N = 22)) was 2 (9%), the CR (locally advanced or MBC; Total (N = 22)) was 0 and the PR (locally advanced or MBC; Total (N = 22)) was 2 (9%). The ORR (locally advanced or MBC; Total (N = 22), 200 mg/m^2 once weekly for 3 weeks, one week off) was 2 (9%) and the Tolerability (locally advanced or MBC; single agent, expected GI toxicity mild in nature and manageable) was “well tolerated”.
